From patent publication US10538516B2, “Oxadiazole derivative and pharmaceutical containing same” (National Center for Geriatrics and Gerontology, priority 2015, dated 2020)
Counter-ions that a name gives are not always drawn.

These molecules were tested against T1, GAβ-dependent amyloid fibril formation (Human Aβ1-40 + GM1-containing liposome) (Homo sapiens, UniProt P05067) (assay: Thioflavin T (ThT) assay of GAβ-dependent amyloid fibril formation (Aβ1-40 with GM1-containing liposome)). Settings: @25 μM; read-out: ThT Inhibitory activity (% inhibition).
T1 construct: Human Aβ1-40 (cat. #4307-v, prepared by Peptide Institute); purchased Peptide Institute 4307-v
T1 sequence (P05067 672-711 limits assumed): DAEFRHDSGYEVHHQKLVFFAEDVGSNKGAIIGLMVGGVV
Type: biochemical
Summary of the method: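 Human Aβ1-40 (75 μM stock) pre-incubated 10 min at room temperature with compound (75 or 15 μM solution), then GM1-containing cholesterol/sphingomyelin liposome added and incubated 37° C, 18 hours. Fibrils quantified by ThT fluorescence (ex 430/em 490 nm, pH 8.5 glycine buffer); inhibition as ratio to compound-free control.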

Going from O=C(N[C@@H](CO)c1nc(-c2ccc(C(F)(F)F)cc2)no1)c1ccc(N2CCCC2)cc1 [Compound 203, N-[(1S)-2-hydroxy-1-{3-[4-(trifluoromethyl)phenyl]-1,2,4-oxadiazol-5-yl}ethyl]-4-(pyrrolidin-1-yl) benzamide] to O=C(N[C@@H](CO)c1nc(-c2ccc(C(F)F)cc2)no1)c1ccc(Cl)cc1 [Compound 167], the inhibition at 25 µM rises from 81% to 98%.

Same assay, conditions: inhibition rate against amyloid fibril formation, final concentration of the compound 25 μM; read-out: Inhibitory activity ABC evaluation

N#Cc1cccc(-c2nnc([C@@H](CO)NC(=O)c3ccc(Cl)cc3)o2)c1 [Compound 109, (R)-4-chloro-N-(1-(5-(3-cyanophenyl)-1,3,4-oxadiazol-2-yl)-2-hydroxyethyl) benzamide] and COc1ccc(-c2nnc([C@H](CO)NC(=O)c3ccc(Cl)cc3)o2)cc1F [Compound 113, (S)-4-chloro-N-(1-(5-(3-fluoro-4-methoxy-phenyl)-1,3,4-oxadiazol-2-yl)-2-hydroxy-ethyl)benzamide] cannot be ordered by inhibition at 25 µM: under 40% for the first, under 40% for the second.

First: O=C(N[C@@H](CO)c1nc(-c2c[nH]c3cc(Cl)ccc23)no1)c1ccc(F)cc1 [Compound 263, N-[(1S)-1-[3-(6-chloro-1H-indol-3-yl)-1,2,4-oxadiazol-5-yl]-2-hydroxyethyl]-4-fluorobenzamide]
Second: O=C(N[C@@H](CO)c1nc(-c2cccc(C(F)(F)F)c2)no1)c1ccc(F)cc1 [Compound 176, 4-fluoro-N-[(1S)-2-hydroxy-1-{3-[3-(trifluoromethyl)phenyl]-1,2,4-oxadiazol-5-yl}ethyl] benzamide]
The inhibition at 25 µM of the first is lower: 40 to 80% for the first, over 80% for the second.

C[Si](C)(C)c1ccc(-c2noc([C@H](CO)NC(=O)c3ccc(F)cc3)n2)cc1 [Compound 224, 4-fluoro-N-[(1S)-2-hydroxy-1-{3-[4-(trimethylsilyl)phenyl]-1,2,4-oxadiazol-5-yl}ethyl]benzamide] and O=C(N[C@H](CO)c1nc(-c2ccc(OC(F)(F)F)cc2)no1)c1ccc(Cl)cc1 [Compound 83, (R)-4-chloro-N-(2-hydroxy-1-[3-{4-(trifluoromethoxy)phenyl}-1,2,4-oxadiazol-5-yl]ethyl)benzamide] cannot be ordered by inhibition at 25 µM: over 80% for the first, over 80% for the second.

N[C@@H](Cc1c[nH]c2ccccc12)c1nnc(-c2ccc(OC(F)(F)F)cc2)o1 [Compound 110, (S)-2-(1H-indol-3-yl)-1-(5-(4-(trifluoro-methoxy)phenyl)-1,3,4-oxadiazol-2-yl) ethan-1-amine hydrochloride] and O=C(Cc1c[nH]c2ccccc12)NC(CO)c1nc(-c2ccc(C(F)(F)F)cc2)no1 (stereo not drawn) [Compound 185, N-(2-hydroxy-1-{3-[4-(trifluoromethyl)phenyl]-1,2,4-oxadiazol-5-yl}ethyl)-2-(1H-indol-3-yl)acetamide] fall in the same range of inhibition at 25 µM: 40 to 80% for the first, 40 to 80% for the second.

O=C(c1ccc(Cl)cc1)N1CC(c2nc(-c3ccc(OC(F)(F)F)cc3)no2)C1 [Compound 68, (4-chloro-phenyl)(3-[3-{4-(trifluoro-methoxy)phenyl}-1,2,4-oxadiazol-5-yl]azetidin-1-yl)methanone] and O=C(c1ccc(Cl)cc1)N1CCC[C@H]1c1nc(-c2ccc(OC(F)(F)F)cc2)no1 [Compound 55, (S)-(4-chlorophenyl) (2-[3-{4-(trifluoro-methoxy)phenyl)-1,2,4-oxadiazol-5-yl}pyrrolidin-1-yl)methanone] fall in the same range of inhibition at 25 µM: 40 to 80% for the first, 40 to 80% for the second.

O=C(N[C@@H](CO)c1nc(-c2ccc(C(F)(F)F)cc2)no1)c1ccc(Cl)cc1F [Compound 236, 4-chloro-2-fluoro-N-[(1S)-2-hydroxy-1-{3-[4-(trifluoromethyl)phenyl]-1,2,4-oxadiazol-5-yl}ethyl]benzamide] and O=C(NC(CO)c1nc(-c2ccc(C(F)(F)F)cc2)no1)c1ccc(C(F)(F)F)cc1 (stereo not drawn) [Compound 188, N-(2-hydroxy-1-{3-[4-(trifluoromethyl)phenyl]-1,2,4-oxadiazol-5-yl}ethyl)-4-(trifluoromethyl) benzamide] cannot be ordered by inhibition at 25 µM: over 80% for the first, over 80% for the second.

Cc1ccc(-c2noc([C@H](CO)NC(=O)c3ccccc3)n2)cc1 [Compound 143, N-[(1S)-2-hydroxy-1-[3-(4-methylphenyl)-1,2,4-oxadiazol-5-yl]ethyl]benzamide] and COc1ccc(-c2noc([C@H](CO)NC(=O)c3ccccc3)n2)cc1F [Compound 144, N-[(1S)-1-[3-(3-fluoro-4-methoxyphenyl)-1,2,4-oxadiazol-5-yl]-2-hydroxyethyl]benzamide] cannot be ordered by inhibition at 25 µM: over 80% for the first, over 80% for the second.

O=C1CC(c2nc(-c3ccc(O)cc3)no2)CN1c1ccc(Cl)cc1 (stereo not drawn) [Compound 41, 1-(4-chlorophenyl)-4-{3-(4-hydroxyphenyl)-1,2,4-oxadiazol-5-yl}pyrrolidin-2-one] and O=C1CC(c2nc(-c3ccc(O)c(F)c3)no2)CN1c1ccc(Cl)cc1 (stereo not drawn) [Compound 74, 1-(4-chloro-phenyl)-4-{3-(3-fluoro-4-hydroxyphenyl)-1,2,4-oxadiazol-5-yl}pyrrolidin-2-one] fall in the same range of inhibition at 25 µM: 40 to 80% for the first, 40 to 80% for the second.

O[C@@H]1C[C@@H](c2nc(-c3ccc(OC(F)(F)F)cc3)no2)N(Cc2ccc(Cl)cc2)C1 [Compound 77, (3R,5S)-1-(4-chlorobenzyl)-5-[3-{4-(trifluoro-methoxy)phenyl}-1,2,4-oxadiazol-5-yl]pyrrolidin-3-ol] and O=C(c1ccc(Cl)cc1)N1CC(O)CC1c1nc(-c2ccc(OC(F)(F)F)cc2)no1 (stereo in doubt) [Compound 85, (4-chlorophenyl) ((2S,4S)-4-hydroxy-2-[3-{4-(trifluoromethoxy)phenyl}-1,2,4-oxadiazol-5-yl]pyrrolidin-1-yl)methanone] fall in the same range of inhibition at 25 µM: 40 to 80% for the first, 40 to 80% for the second.

O=C1CC(c2nc(-c3cccc(OC(F)F)c3)no2)CN1c1ccc(Cl)cc1 (stereo not drawn) [Compound 66, 1-(4-chlorophenyl)-4-[3-{3-(difluoro-methoxy)phenyl}-1,2,4-oxadiazol-5-yl]pyrrolidin-2-one] and O=C1CC(c2nc(-c3ccc(OC(F)(F)F)cc3)no2)CN1c1ccc(Cl)cn1 (stereo not drawn) [Compound 49, 1-(5-chloropyridin-2-yl)-4-[3-{4-(trifluoro-methoxy)phenyl}-1,2,4-oxadiazol-5-yl] pyrrolidin-2-one] fall in the same range of inhibition at 25 µM: 40 to 80% for the first, 40 to 80% for the second.

O=C(N[C@@H](CO)c1nc(-c2ccc(C(F)(F)F)cc2)no1)c1ccc(N2CCCC2)cc1 [Compound 203, N-[(1S)-2-hydroxy-1-{3-[4-(trifluoromethyl)phenyl]-1,2,4-oxadiazol-5-yl}ethyl]-4-(pyrrolidin-1-yl) benzamide] and O=C(N[C@@H](CO)c1nc(-c2ccc(C(F)(F)F)cc2)no1)c1ccc(OC(F)(F)F)cc1 [Compound 199, N-[(1S)-2-hydroxy-1-{3-[4-(trifluoromethyl)phenyl]-1,2,4-oxadiazol-5-yl}ethyl]-4-(trifluoromethoxy) benzamide] cannot be ordered by inhibition at 25 µM: over 80% for the first, over 80% for the second.

OC[C@H](NC(=S)Nc1ccc(Cl)cc1)c1nc(-c2ccc(OC(F)(F)F)cc2)no1 [Compound 97, (S)-1-(4-chloro-phenyl)-3-(2-hydroxy-1-[3-{4-(trifluoromethoxy)phenyl}-1,2,4-oxadiazol-5-yl]ethyl)thiourea] and O=C(N[C@@H](CO)c1noc(-c2ccc(OC(F)(F)F)cc2)n1)c1ccc(Cl)cc1 [Compound 126, (R)-4-chloro-N-(2-hydroxy-1-(5-(4-(trifluoromethoxy)phenyl)-1,2,4-oxadiazol-3-yl)ethyl)benzamide] fall in the same range of inhibition at 25 µM: 40 to 80% for the first, 40 to 80% for the second.

O=C(N[C@@H](CO)c1nc(-c2ccc(C(F)(F)F)cn2)no1)c1ccc(F)cc1 [Compound 204, 4-fluoro-N-[(1S)-2-hydroxy-1-{3-[5-(trifluoromethyl)pyridin-2-yl]-1,2,4-oxadiazol-5-yl}ethyl]benzamide] and Nc1[nH]cnc1-c1noc([C@H](CO)NC(=O)c2ccc(F)cc2)n1 [Compound 258, N-[(1S)-1-[3-(5-amino-1H-imidazol-4-yl)-1,2,4-oxadiazol-5-yl]-2-hydroxyethyl]-4-fluorobenzamide] fall in the same range of inhibition at 25 µM: 40 to 80% for the first, 40 to 80% for the second.

Going from O=C(N[C@@H](CO)c1nc(-c2ccc(C(F)F)cc2)no1)c1ccc(Cl)cc1 [Compound 167] to CCN(CC)CCOc1ccc(C(=O)N[C@@H](CO)c2nc(-c3ccc(OC(F)(F)F)cc3)no2)cc1 [Compound 171, 4-[2-(diethylamino)ethoxy]-N-[(1S)-2-hydroxy-1-{3-[4-(trifluoromethoxy)phenyl]-1,2,4-oxadiazol-5-yl}ethyl] benzamide], the inhibition at 25 µM falls from over 80% to under 40%.

Going from O=C(N[C@@H](CO)c1nc(-c2cccc(C(F)(F)F)c2)no1)c1cn2ccccc2n1 [Compound 244, N-[(1S)-2-hydroxy-1-{3-[3-(trifluoromethyl)phenyl]-1,2,4-oxadiazol-5-yl}ethyl]imidazo[1,2-a]pyridine-2-carboxamide] to O=C(N[C@@H](CO)c1nc(-c2cccc(C(F)(F)F)c2)no1)c1cc(F)cc(Cl)c1 [Compound 222, 3-chloro-5-fluoro-N-[(1S)-2-hydroxy-1-{3-[3-(trifluoromethyl)phenyl]-1,2,4-oxadiazol-5-yl}ethyl]benzamide], the inhibition at 25 µM rises from under 40% to over 80%.

CN(C(=O)CCc1nc(-c2ccc(O)cc2)no1)c1cccc(Cl)c1 [Compound 13, N-(3-chloropbenyl)-3-{3-(4-hydroxyphenyl)-1,2,4-oxadiazol-5-yl}-N-methylpropanamide] and O=C(CCc1nc(-c2ccc(OC(F)(F)F)cc2)no1)N1CCCc2ccccc21 [Compound 12, 1-{3,4-dihydroquinolin-1(2H)-yl}-3-[3-{4-(trifluoromethoxy)phenyl}-1,2,4-oxadiazol-5-yl]propan-1-one] fall in the same range of inhibition at 25 µM: 40 to 80% for the first, 40 to 80% for the second.

NC(Cc1c[nH]cn1)c1nc(-c2ccc(OC(F)(F)F)cc2)no1 (stereo not drawn) [Compound 37, 2-(1H-imidazol-4-yl)-1-[3-{4-(trifluoromethoxy)phenyl}-1,2,4-oxadiazol-5-yl]ethan-1-amine] and O=C(c1ccc(Cl)cn1)N1C[C@H](O)C[C@H]1c1nc(-c2ccc(OC(F)(F)F)cc2)no1 [Compound 60, (5-chloropyridin-2-yl)((2S,4R)-4-hydroxy-2-[3-{4-(trifluoro-methoxy)phenyl}-1,2,4-oxadiazol-5-yl]pyrrolidin-1-yl)methanone] cannot be ordered by inhibition at 25 µM: under 40% for the first, under 40% for the second.
